# Read-outs that look alike come from different tables or passages of the source.
# Tests used:
# [1] = tested on: HCV GT1a wild type (wt) replicon; experiment: Assay Example 2: activity against HCV GT1a wild-type replicon; format: cell-based; settings: Hepatitis C virus, 72 h, Huh-7 cells, transient transfection, 3 days
# Method: (§1) Cells: Huh-7 cells are liver cancer cell strains (from AppTec, USA), HCV GT1a and GT1b wild type (wt) replicons, GT1b/3a, GT1b/4a, GT1b/5a and GT1b/6a NS5A chimeric replicons.
# (§2) Treatment of Compound: According to the assay final concentrations of the compounds in Table 5, DMSO stock solutions of the compounds were diluted and then added to a 96-well assay plate. The final concentration of DMSO was 0.5%.
# (§3) The preparation of cells: After replicon plasmid DNA was linearized with a corresponding restriction enzyme, the DNA was transcribed into RNA by using T7 RNA polymerase. Replicon RNA prepared by transcription in vitro was transfected into Huh-7 cells by electroporation. Transfected cells were seeded at a density of 10,000 cells per well into the 96-well assay plate containing the diluted compounds, and then placed in a 37° C. incubator with 5% CO2 and cultured for 3 days.
# (§4) Drug activity assay: Luminescence signal value (RLU) was detected with Envision within 15 minutes using the luciferase assay reagent Britelite plus, and the original data (RLU) was used for the calculation of the activity of the compounds.
# (§5) The cytotoxicity of the compounds was calculated by using the equation below: Cell Viability %=(CPD−HPE)/(ZPE−HPE)×100%* The activity of the compounds was calculated by using the equation below: Inhibition %=(ZPE−CPD)/(ZPE−HPE)×100%*
# (§6) The cell viability percentages (Viability %) and the inhibition percentages (Inhibition %) were imported into GraphPad Prism software, respectively, and curves were fitted by using nonlinear regression method to obtain the corresponding curves of the compounds, and the cytotoxicity (CC50) thereof and the inhibitory activity (EC50) values against the HCV replicon thereof.
# [2] = tested on: HCV GT1b/3a NS5A chimeric replicon; experiment: Assay Example 2: activity against GT1b/3a NS5A chimeric replicon; format: cell-based; settings: Hepatitis C virus, Huh-7, 72 h, read-out: EC50 Value GT1b/3a-NS5A-wt
# Method: as §1, §2, §3, §4, §5, §6
# [3] = tested on: HCV GT1b wild type (wt) replicon; experiment: Assay Example 2: activity against HCV GT1b wild-type replicon; format: cell-based; settings: Hepatitis C virus, read-out: EC50 Value GT1b-wt
# Method: as §1, §2, §3, §4, §5, §6
# [4] = Assay Example 2: cell viability assay (CellTiter-Fluor), GT1b wild-type replicon plate; format: cell-based; settings: human, Huh-7 cells with GT1b wild-type replicon, read-out: CC50 Value GT1b-wt
# Method: as §1, §2, §3
# Cell viability assay: A cell growth fluorescent titration detection reagent CellTiter-Fluor was added to the 96-well plate of the GT1b wild-type replicon. After the cells were cultured for 1 hour in a 37° C. incubator with 5% CO2, the fluorescence signal value (RFU) was detected by Envision, and the original data (RFU) was used for the calculation of the cytotoxicity of the compounds.
# as §5, §6
# [5] = tested on: HCV GT1a wild-type replicon; experiment: Assay Example 6: drug resistance, activity against HCV GT1a wild-type replicon; format: cell-based; settings: Hepatitis C virus, 72 h, Huh-7 cells, transient transfection, 3 days, read-out: GT1a-wt EC50 value
# Method: (§7) Cells: Huh-7 cells are liver cancer cell strains (from AppTec, USA), HCVGT1a wild-type replicon and GT1a-NS5A-Y93H and GT1a-NS5A-L31V mutant replicons
# (§8) Treatment of Compound: According to the assay final concentrations of the compounds in Table 11, DMSO stock solutions of the compounds were diluted and then added to a 96-well assay plate. The final concentration of DMSO was 0.5%.
# as §3
# (§9) Compound activity assay: Luminescence signal value (RLU) was detected with Envision within 5 minutes by using the luciferase assay reagent Britelite plus, and the original data (RLU) was used for the calculation of the activity of the compounds.
# (§10) The activity of the compounds was calculated by using the equation below: Inhibition %=(CPD−ZPE)/(HPE−ZPE)×100%*
# (§11) The compound activity percentages (Inhibition %) were imported into GraphPad Prism software, and curves were fitted by using nonlinear regression method to obtain the corresponding curves of the compounds and the inhibitory activity (EC50) values against the HCV replicon thereof.
# [6] = tested on: GT1a-NS5A-L31V mutant replicon; experiment: Assay Example 6: drug resistance, activity against GT1a-NS5A-L31V mutant replicon; format: cell-based, hepatitis C virus; settings: for GT1a-NS5A-L31V Fold change: EC50 mutant versus GT1a-wt; for EC50: Hepatitis C virus, GT1A, Huh-7, 72 h, read-out: GT1a-NS5A-L31V EC50 value
# Method: as §7, §8, §3, §9, §10, §11
# [7] = tested on: GT1a-NS5A-Y93H mutant replicon; experiment: Assay Example 6: drug resistance, activity against GT1a-NS5A-Y93H mutant replicon; format: cell-based, hepatitis C virus; settings: for GT1a-NS5A-Y93H Fold change: EC50 mutant versus GT1a-wt; for EC50: Hepatitis C virus, GT1A, Huh-7, 72 h, read-out: GT1a-NS5A-Y93H EC50 value
# Method: as §7, §8, §3, §9, §10, §11
# [8] = tested on: HCV GT1b/4a NS5A chimeric replicon; experiment: Assay Example 2: activity against GT1b/4a NS5A chimeric replicon; format: cell-based; settings: Hepatitis C virus, Huh-7, 72 h, read-out: EC50 Value GT1b/4a-NS5A-wt
# Method: as §1, §2, §3, §4, §5, §6
# [9] = tested on: HCV GT1b/5a NS5A chimeric replicon; experiment: Assay Example 2: activity against GT1b/5a NS5A chimeric replicon; format: cell-based; settings: Hepatitis C virus, Huh-7, 72 h, read-out: EC50 Value GT1b/5a-NS5A-wt
# Method: as §1, §2, §3, §4, §5, §6
# [10] = tested on: HCV GT1b/6a NS5A chimeric replicon; experiment: Assay Example 2: activity against GT1b/6a NS5A chimeric replicon; format: cell-based; settings: Hepatitis C virus, Huh-7, 72 h, read-out: EC50 Value GT1b/6a-NS5A-wt
# Method: as §1, §2, §3, §4, §5, §6
# [11] = Assay Example 3: parallel cytotoxicity assay (alamarBlue) without viral infection; format: cell-based; settings: human, Huh7.5.1 cells without viral infection, no viral infection, read-out: CC50 Value HCVcc
# Method: (§12) Cells: Huh7.5.1 cells and hepatitis C virus HCVcc (GT2a, JFH-1) infection system.
# (§13) Treatment of Compound: According to the assay final concentrations of the compounds in Table 6, DMSO stock solutions of the compounds were diluted and then added to a 96-well assay plate. The final concentration of DMSO was 0.5%.
# (§14) Viral infection: Huh7.5.1 cells were seeded in a 96-well cell culture plate, and the cells were cultured overnight at 37° C. in an incubator with 5% CO2 for later use. The compound and the HCVcc virus solution (MOI=0.1) were simultaneously added to the cells, and the virus infection was cultured for 3 days. Parallel cytotoxicity assay was identical to the method for the inhibition of the virus but without viral infection.
# Cell viability assay: Cell viability was detected by the addition of alamarBlue assay reagent. The original data (RFU) was used for the calculation of the cytotoxicity of the compounds.
# The cytotoxicity of the compounds was calculated by using the equation below: Cell Viability %=CPD/CC×100%*
# (§15) The cell viability percentages (Cell Viability %) and the compound activity percentages (Inhibition %) were imported into GraphPad Prism software, respectively, and curves were fitted by using nonlinear regression method to obtain the corresponding curves of the compounds, and the cytotoxicity (CC50) thereof and inhibitory activity (EC50) values against the HCV replicon thereof.
# [12] = tested on: hepatitis C virus HCVcc (GT2a, JFH-1); experiment: Assay Example 3: activity against infective hepatitis C virus HCVcc (GT2a, JFH-1); format: cell-based; settings: Huh-7.5.1, 72 h, read-out: EC50 Value GT2a HCVcc
# Method: as §12, §13, §14
# Drug activity assay: The activity of hRLuc was detected by the addition of Renilla luciferase assay reagent. The original data (RLU) was used for the calculation of the activity of the compounds.
# The activity of the compounds was calculated by using the equation below: Inhibition %=(CPD−VC)/(CC−VC)×100%*
# as §15
# [13] = 72 h, Huh-7 cells, transient transfection, 3 days
# [14] = Huh-7 cells transfected with HCV GT1b wild-type replicon RNA
SMILES,EC50 [1] [pM],EC50 [2] [pM],"EC50 [3, 13] [pM]","CC50 at 3 days [4, 14] [pM]",EC50 [5] [pM],GT1a-NS5A-L31V Fold change [6],EC50 [6] [pM],GT1a-NS5A-Y93H Fold change [7],EC50 [7] [pM],EC50 [8] [pM],EC50 [9] [pM],EC50 [10] [pM],CC50 at 3 days [11] [pM],"EC50 ([3]; Huh-7, 72 h) [pM]",CC50 at 3 days [4] [pM],EC50 [12] [pM]
COC(=O)N[C@H](C(=O)N1CCC[C@H]1c1nc2cc([C@H]3CC[C@H](c4ccc5[nH]c([C@@H]6CCCN6C(=O)[C@@H](NC(=O)OC)[C@@H](C)OC)nc5c4)N3c3cc(F)c(N4CC[Si]5(CCCC5)CC4)c(F)c3)ccc2[nH]1)[C@@H](C)OC [Compound 7b],1.44,10.3,3.3,> 200,1.8,3.4,6.1,502,903,,,,,,,
COC(=O)N[C@H](C(=O)N1CCC[C@H]1c1nc2cc([C@H]3CC[C@H](c4cc5nc([C@@H]6CCCN6C(=O)[C@@H](NC(=O)OC)[C@@H](C)OC)[nH]c5cc4F)N3c3cc(F)c(N4CC[Si](C)(C)CC4)c(F)c3)c(F)cc2[nH]1)[C@@H](C)OC [Compound 9b],1.01,3.8,5.28,> 200,2,0.9,1.7,20.0,40,2.49,6.08,1.13,> 100,,,
COC(=O)N[C@H](C(=O)N1CCC[C@H]1C(=O)Nc1ccc([C@@H]2CC[C@@H](c3ccc(NC(=O)[C@@H]4CCCN4C(=O)[C@@H](NC(=O)OC)[C@@H](C)OC)cc3)N2c2cc(F)c(N3CC[Si]4(CCCCC4)CC3)c(F)c2)cc1)[C@@H](C)OC [Compound 11a],,8.8,,,,,,,,,,1.69,,1.34,> 200,
COC(=O)N[C@H](C(=O)N1CCC[C@H]1C(=O)Nc1ccc([C@H]2CC[C@H](c3cc4[nH]c([C@@H]5CCCN5C(=O)[C@@H](NC(=O)OC)[C@@H](C)OC)nc4cc3F)N2c2cc(F)c(N3CC[Si](C)(C)CC3)c(F)c2)cc1)[C@@H](C)OC [Compound 14b],1.07,6.11,2.92,> 200,2.9,11.0,32,,,1.59,5.37,1.12,> 100,,,
COC[C@H]1C[C@@H](C(=O)Nc2ccc([C@H]3CC[C@H](c4cc5[nH]c([C@@H]6CCCN6C(=O)[C@@H](NC(=O)OC)[C@@H](C)OC)nc5cc4F)N3c3cc(F)c(N4CC[Si](C)(C)CC4)c(F)c3)cc2)N(C(=O)[C@@H](NC(=O)OC)[C@@H](C)OC)C1 [Compound 17b],,5.71,3.06,> 200,,,,,,1.66,4.66,1.09,> 100,,,2.68
COC[C@H]1C[C@@H](C(=O)Nc2ccc([C@H]3CC[C@H](c4ccc5nc([C@@H]6CCCN6C(=O)[C@@H](NC(=O)OC)[C@@H](C)OC)[nH]c5c4)N3c3cc(F)c(N4CC[Si](C)(C)CC4)c(F)c3)cc2)N(C(=O)[C@@H](NC(=O)OC)[C@@H](C)OC)C1 [Compound 18b],,7.14,2.59,> 200,,,,,,,4.5,1.75,> 100,,,1.15

# Source: patent publication US10766912B2 (priority 2017, dated 2020)
